Test: Chemical stability study of the stable form of Erlotinib hydrochloride (description, HPLC impurities, moisture content, assay on storage)
Type: physicochemical
Conditions: for Assay (%), OAB: limit 98.0-102 w/w; for Description: limit White to off white; for Imp-1 (%) (N-(3-Ethynylphenyl)-6-(2-chloroethoxy)-7-(2-methoxyethoxy)-quinazolin-4-amine hydrochloride) / Imp-2 (%) (N-(3-Ethynylphenyl)-7-(2-chloroethoxy)-6-(2-methoxyethoxy)-quinazolin-4-amine hydrochloride): limit 0.15 w/w; for m/c (%): limit 0.5 w/w; for HPLC single maximum impurity content / HPLC total impurity content / water content: storage condition not stated
Experimental: (Refrigerator), 25° C.±2° C.[…], 30° C.±2° C./65%±5% RH (Real Time) and 40° C.±2° C./75%±5% RH of Erlotinib Hydrochloride
Differential Scanning Calorimetry (DSC): Melting points are determined by means of a DSC thermogram using a Pyris-1 make Perkin Elmer. DSC (Differential Scanning Calorimetry) is the technique of dynamic differential Calorimetry. Using this technique, the melting temperature can be measured by heating the sample until a thermal, i.e. an endothermic or exothermic, reaction is detected by means of ultrasensitive sensors. The DSC cell/sample chamber was purged with 100 ml/min of ultra-high purity nitrogen. The instrument was calibrated with high purity Indium. The sample was placed into an open aluminum DSC pan and measured against an empty reference pan. About 2 mg of sample being placed into the bottom of the pan and lightly tapped down to ensure good contact with the pan. The instrument was programmed to heat at a heating rate of 10° C./min in the temperature range between 50° C. and 300° C. • Microscope: A Lieca Microscope with Linkam Hot stage microscopy (TMS-94) system with polarized light, CCD camera and Linksys 32 data software. • HPLC: High Performance Liquid Chromatography Separation Module with PDA detector, Make Waters, Model No 2695. • KF: Moisture content was analyzed by using Karl Fisher Autotitrator 795 KFT Titrino make Metrohm.

[1] = 30° C. ± 2° C./65% ± 5% RH (Real Time), Month 1
[2] = 30° C. ± 2° C./65% ± 5% RH (Real Time), Month 2
[3] = 30° C. ± 2° C./65% ± 5% RH (Real Time), Month 3
[4] = 30° C. ± 2° C./65% ± 5% RH (Real Time), Month 6
[5] = 40° C. ± 2° C./75% ± 5% RH, Month 1
[6] = 40° C. ± 2° C./75% ± 5% RH, Month 2
[7] = 40° C. ± 2° C./75% ± 5% RH, Month 3
[8] = 40° C. ± 2° C./75% ± 5% RH, Month 6

C#Cc1cccc(Nc2ncnc3cc(OCCOC)c(OCCOC)cc23)c1.Cl [Erlotinib hydrochloride, 4-(3-Ethynylphenylamino)-6,7-bis(2-methoxyethoxy)-quinazoline]
Assay (%), OAB [1]: 99.6%
Description [1]: Complies
Total Imp [2]: 0.13 % w/w
Imp-1 (%) (N-(3-Ethynylphenyl)-6-(2-chloroethoxy)-7-(2-methoxyethoxy)-quinazolin-4-amine hydrochloride) [2]: 0.05%
Imp-2 (%) (N-(3-Ethynylphenyl)-7-(2-chloroethoxy)-6-(2-methoxyethoxy)-quinazolin-4-amine hydrochloride) [2]: 0.08%
m/c (%) [2]: 0.15%
Assay (%), OAB [2]: 99.4%
Description [2]: Complies
Total Imp [3]: 0.13 % w/w
Imp-1 (%) (N-(3-Ethynylphenyl)-6-(2-chloroethoxy)-7-(2-methoxyethoxy)-quinazolin-4-amine hydrochloride) [3]: 0.05%
Imp-2 (%) (N-(3-Ethynylphenyl)-7-(2-chloroethoxy)-6-(2-methoxyethoxy)-quinazolin-4-amine hydrochloride) [3]: 0.08%
m/c (%) [3]: 0.15%
Assay (%), OAB [3]: 99.4%
Description [3]: Complies
Total Imp [4]: 0.14 % w/w
Imp-1 (%) (N-(3-Ethynylphenyl)-6-(2-chloroethoxy)-7-(2-methoxyethoxy)-quinazolin-4-amine hydrochloride) [4]: 0.06%
Imp-2 (%) (N-(3-Ethynylphenyl)-7-(2-chloroethoxy)-6-(2-methoxyethoxy)-quinazolin-4-amine hydrochloride) [4]: 0.08%
m/c (%) [4]: 0.14%
Assay (%), OAB [4]: 99.8%
Description [4]: Complies
Total Imp [5]: 0.14 % w/w
Imp-1 (%) (N-(3-Ethynylphenyl)-6-(2-chloroethoxy)-7-(2-methoxyethoxy)-quinazolin-4-amine hydrochloride) [5]: 0.06%
Imp-2 (%) (N-(3-Ethynylphenyl)-7-(2-chloroethoxy)-6-(2-methoxyethoxy)-quinazolin-4-amine hydrochloride) [5]: 0.08%
m/c (%) [5]: 0.15%
Assay (%), OAB [5]: 99.3%
Description [5]: Complies
Total Imp [6]: 0.13 % w/w
Imp-1 (%) (N-(3-Ethynylphenyl)-6-(2-chloroethoxy)-7-(2-methoxyethoxy)-quinazolin-4-amine hydrochloride) [6]: 0.05%
Imp-2 (%) (N-(3-Ethynylphenyl)-7-(2-chloroethoxy)-6-(2-methoxyethoxy)-quinazolin-4-amine hydrochloride) [6]: 0.08%
m/c (%) [6]: 0.16%
Assay (%), OAB [6]: 99.5%
Description [6]: Complies
Total Imp [7]: 0.13 % w/w
Imp-1 (%) (N-(3-Ethynylphenyl)-6-(2-chloroethoxy)-7-(2-methoxyethoxy)-quinazolin-4-amine hydrochloride) [7]: 0.05%
Imp-2 (%) (N-(3-Ethynylphenyl)-7-(2-chloroethoxy)-6-(2-methoxyethoxy)-quinazolin-4-amine hydrochloride) [7]: 0.08%
m/c (%) [7]: 0.16%
Assay (%), OAB [7]: 99.9%
Description [7]: Complies
Total Imp [8]: 0.14 % w/w
Imp-1 (%) (N-(3-Ethynylphenyl)-6-(2-chloroethoxy)-7-(2-methoxyethoxy)-quinazolin-4-amine hydrochloride) [8]: 0.06%
Imp-2 (%) (N-(3-Ethynylphenyl)-7-(2-chloroethoxy)-6-(2-methoxyethoxy)-quinazolin-4-amine hydrochloride) [8]: 0.08%
m/c (%) [8]: 0.17%
Assay (%), OAB [8]: 99.4%
Description [8]: Complies
HPLC single maximum impurity content (Initial): 0.08 % w/w
HPLC total impurity content (Initial): 0.13 % w/w
water content (Initial): 0.14 % w/w
HPLC single maximum impurity content (after 3 months): 0.08 % w/w
HPLC total impurity content (after 3 months): 0.13 % w/w
water content (after 3 months): 0.14 % w/w
HPLC single maximum impurity content (after 6 months): 0.08 % w/w
HPLC total impurity content (after 6 months): 0.13 % w/w
water content (after 6 months): 0.14 % w/w

From patent publication US20140121373A1, “PROCESS FOR PREPARING STABLE POLYMORPHIC FORM OF ERLOTINIB HYDROCHLORIDE” (CADILA HEALTHCARE LIMITED, priority 2011, published 2014)
